Laboratory results published in ChEMBL document CHEMBL4376803, “Recent Advances in the Exploration of Therapeutic Analogues of Gramicidin S, an Old but Still Potent Antimicrobial Peptide” (J Med Chem, 2019).
Converted amounts (≈) assume the structure as drawn. Values belong to the compound of their own block, whether it stands above or below them. Square brackets hold non-standard residues; d marks the D form. Peptide text beside a SMILES is read from it.

How the values were obtained:
Escherichia coli [1] = assay: Antibacterial activity against Escherichia coli NBRC 12734 after overnight incubation by microplate dilution method; assay type: functional
Priestia megaterium = assay: Antibacterial activity against Bacillus megaterium ATCC 19213 after overnight incubation by microplate dilution method; assay type: functional
Bacillus subtilis = assay: Antibacterial activity against Bacillus subtilis NBRC 3513 after overnight incubation by microplate dilution method; assay type: functional
Pseudomonas aeruginosa [2] = assay: Antibacterial activity against Pseudomonas aeruginosa NBRC 3080 after overnight incubation by microplate dilution method; assay type: functional
[3] = Hemolytic activity in sheep RBC incubated for 30 mins; assay type: ADME, cell-based, Ovis aries, Erythrocyte; settings: sheep red blood cells
Staphylococcus aureus [4] = assay: Antibacterial activity against Staphylococcus aureus NBRC 12732 after overnight incubation by microplate dilution method; assay type: functional
Staphylococcus aureus [5] = assay: Antibacterial activity against methicillin-resistant Staphylococcus aureus NT 1110301981H-T034-PVL+ incubated for 24 hrs; assay type: functional
Pseudomonas aeruginosa [6] = assay: Antibacterial activity against Pseudomonas aeruginosa ATCC 27853 incubated for 24 hrs; assay type: functional; settings: ATCC 27853, 24 h
Escherichia coli [7] = assay: Antibacterial activity against Escherichia coli ATCC 25922 after 24 hrs; assay type: functional; settings: ATCC 25922, 24 h
Enterococcus faecalis [8] = assay: Antibacterial activity against Enterococcus faecalis ATCC 29212 after 24 hrs; assay type: functional; settings: ATCC 29212, 24 h
Staphylococcus aureus [9] = assay: Antibacterial activity against Staphylococcus aureus ATCC 29213 after 24 hrs; assay type: functional; settings: ATCC 29213, 24 h
[10] = Haemolytic activity in human erythrocytes incubated for 30 mins; assay type: ADME, cell-based, Erythrocyte
Staphylococcus aureus [11] = assay: Antibacterial activity against Staphylococcus aureus 209P incubated for 20 hrs by liquid microdilution method; assay type: functional
Escherichia coli [12] = assay: Antibacterial activity against Escherichia coli K-12 strain W3110 incubated for 20 hrs by liquid microdilution method; assay type: functional; settings: K-12 substr. W3110, 20 h
Escherichia coli [13] = assay: Antibacterial activity against Escherichia coli ATCC 25922 after overnight incubation; assay type: functional
Enterococcus faecalis [14] = assay: Antibacterial activity against Enterococcus faecalis ATCC 29212 after overnight incubation; assay type: functional
Staphylococcus aureus [15] = assay: Antibacterial activity against Staphylococcus aureus ATCC 29213 after overnight incubation; assay type: functional
[16] = Hemolytic activity against RBC (unknown origin) at 100 ul after 4 hrs; assay type: ADME, cell-based, Erythrocyte; settings: red blood cells (unknown origin)
Escherichia coli [17] = assay: Antibacterial activity against Escherichia coli ATCC 25922 after 24 hrs by broth dilution method; assay type: functional; settings: ATCC 25922, 24 h
Enterococcus faecalis [18] = assay: Antibacterial activity against Enterococcus faecalis 1131 after 24 hrs by broth dilution method; assay type: functional; settings: Enterococcus faecalis, 1131, 24 h
Staphylococcus aureus [19] = assay: Antibacterial activity against Staphylococcus aureus 7323; assay type: functional
Pseudomonas aeruginosa [20] = assay: Antibacterial activity against Pseudomonas aeruginosa ATCC 19582 after 24 hrs by broth dilution method; assay type: functional; settings: ATCC 19582, 24 h
Candida albicans = assay: Antibacterial activity against Candida albicans after overnight incubation by microtiter dilution method; assay type: functional
[21] = Therapeutic index, ratio of HD100 for hemolytic activity in human RBC to MIC against Pseudomonas aeruginosa H187; assay type: toxicity; settings: human red blood cells, read-out: TI
Erythrocyte = assay: Haemolytic activity in human RBC after 4 hrs by visual method; assay type: ADME, cell-based
[22] = Therapeutic index, ratio of HD100 for hemolytic activity in human RBC to MIC against Staphylococcus aureus K147; assay type: toxicity; settings: human red blood cells, read-out: TI
Enterococcus faecalis [23] = assay: Antibacterial activity against Enterococcus faecalis ATCC 29212 after overnight incubation by microtiter dilution method; assay type: functional
Pseudomonas aeruginosa [24] = assay: Antibacterial activity against Pseudomonas aeruginosa H187 after overnight incubation by microtiter dilution method; assay type: functional
Lipopolysaccharide (LPS) = assay: Displacement of Dansyl-polymyxin from Pseudomonas aeruginosa LPS by fluorescence method; settings: read-out: I50
[25] = Therapeutic index, ratio of HD100 for hemolytic activity in human RBC to MIC against Enterococcus faecalis ATCC 29212; assay type: toxicity; settings: human red blood cells, read-out: TI
Staphylococcus aureus [26] = assay: Antibacterial activity against Staphylococcus aureus K147 after overnight incubation by microtiter dilution method; assay type: functional
[27] = Therapeutic index, ratio of HD100 for hemolytic activity in human RBC to MIC against Escherichia coli UB1005; assay type: toxicity; settings: human red blood cells, read-out: TI
Escherichia coli [28] = assay: Antibacterial activity against Escherichia coli UB1005 after overnight incubation by microtiter dilution method; assay type: functional

Structure (SMILES): NCCC[C@@H]1NC(=O)[C@H](C23CC4CC(CC(C4)C2)C3)NC(=O)[C@H](CCCN)NC(=O)[C@@H]2CCCN2C(=O)[C@@H](Cc2ccccc2)NC(=O)[C@H](CCCN)NC(=O)[C@H](C23CC4CC(CC(C4)C2)C3)NC(=O)[C@H](CCCN)NC(=O)[C@@H]2CCCN2C(=O)[C@@H](Cc2ccccc2)NC1=O
MIC (Staphylococcus aureus [5]): 8 µg/mL (≈ 6.03 µM) | MIC (Pseudomonas aeruginosa [6]): 16 µg/mL (≈ 12.1 µM) | MIC (Escherichia coli [7]): 8 µg/mL (≈ 6.03 µM) | MIC (Enterococcus faecalis [8]): 8 µg/mL (≈ 6.03 µM) | MIC (Staphylococcus aureus [9]): 8 µg/mL (≈ 6.03 µM)

Structure (SMILES): CC(C)C[C@@H]1NC(=O)[C@H](CCCN)NC(=O)[C@H](C(C)C)NC(=O)[C@@H]2C[C@@H](N[C@@H](CCCCN)C(=O)O)CN2C(=O)[C@@H](Cc2ccccc2)NC(=O)[C@H](CC(C)C)NC(=O)[C@H](CCCN)NC(=O)[C@H](C(C)C)NC(=O)[C@@H]2C[C@@H](N[C@@H](CCCCN)C(=O)O)CN2C(=O)[C@@H](Cc2ccccc2)NC1=O [listing 1 of 2 here]
HC50 at 0.5 h [10]: > 100 µg/mL

Structure (SMILES): CC(C)C[C@@H]1NC(=O)[C@H](CCCN)NC(=O)[C@H](C(C)C)NC(=O)[C@@H]2CCCN2C(=O)[C@@H](Cc2ccc(OCc3ccccc3)cc2)NC(=O)[C@H](CC(C)C)NC(=O)[C@@H](CCCN)NC(=O)[C@H](C(C)C)NC(=O)[C@@H]2CCCN2C(=O)[C@@H](Cc2ccc(OCc3ccccc3)cc2)NC1=O
MIC (Escherichia coli [13]): 64 µg/mL (≈ 47.3 µM) | MIC (Enterococcus faecalis [14]): 8 µg/mL (≈ 5.91 µM) | MIC (Staphylococcus aureus [15]): 8 µg/mL (≈ 5.91 µM)

Structure (SMILES): NCCC[C@@H]1NC(=O)[C@H](C23CC4CC(CC(C4)C2)C3)NC(=O)[C@@H]2CCCN2C(=O)[C@@H](Cc2ccccc2)NC(=O)[C@H](C23CC4CC(CC(C4)C2)C3)NC(=O)[C@H](CCCN)NC(=O)[C@H](C23CC4CC(CC(C4)C2)C3)NC(=O)[C@@H]2CCCN2C(=O)[C@@H](Cc2ccccc2)NC(=O)[C@H](C23CC4CC(CC(C4)C2)C3)NC1=O
MIC (Pseudomonas aeruginosa [6]): > 64 µg/mL | MIC (Escherichia coli [7]): > 64 µg/mL | MIC (Enterococcus faecalis [8]): > 64 µg/mL | MIC (Staphylococcus aureus [9]): > 64 µg/mL

Structure (SMILES): CC(C)C[C@@H]1NC(=O)[C@H](CCCCN)NC(=O)[C@H](C(C)C)NC(=O)[C@@H]2CCCN2C(=O)[C@@H](Cc2ccc(O)cc2)NC(=O)[C@H](CC(C)C)NC(=O)[C@H](CCCCN)NC(=O)[C@H](C(C)C)NC(=O)[C@H](CCCCN)NC(=O)[C@H](CC(C)C)NC(=O)[C@@H]2CCCN2C(=O)[C@@H](Cc2ccc(O)cc2)NC(=O)[C@H](C(C)C)NC(=O)[C@H](CCCCN)NC1=O (cyclo(KLKV[dY]PLKVKL[dY]PV))
MIC (Candida albicans): 175 µg/mL (≈ 105 µM) | selectivity ratio [21]: < 0.01 | HD100 (Erythrocyte): 1.5 µg/mL | selectivity ratio [22]: < 0.01 | MIC (Enterococcus faecalis [23]): 2.3 µg/mL (≈ 1.38 µM) | MIC (Pseudomonas aeruginosa [24]): > 200 µg/mL | IC50 (Lipopolysaccharide (LPS)): 3000 nM | selectivity ratio [25]: 0.7 | MIC (Staphylococcus aureus [26]): > 200 µg/mL | selectivity ratio [27]: < 0.01 | MIC (Escherichia coli [28]): > 200 µg/mL

Further lines, with some results ahead:

MIC (Escherichia coli [1]): 25 µg/mL (≈ 19 µM) | MIC (Priestia megaterium): 3.13 µg/mL (≈ 2.38 µM) | MIC (Bacillus subtilis): 3.13 µg/mL (≈ 2.38 µM) | MIC (Pseudomonas aeruginosa [2]): 100 µg/mL (≈ 76.2 µM) | MIC (Staphylococcus aureus [4]): 3.13 µg/mL (≈ 2.38 µM)
Structure (SMILES): CC(C)C[C@@H]1NC(=O)[C@H](CCCN)NC(=O)[C@H](C(C)C)NC(=O)[C@@H]2CCCN2C(=O)[C@@H](Cc2ccccc2)NC(=O)[C@H](CC(C)C)NC(=O)[C@H](CCCN)NC(=O)[C@H](C(C)C)NC(=O)[C@@H]2CCCN2C(=O)NC(=O)[C@H](Cc2ccccc2)NC(=O)[C@H](CCCCN)NC1=O
HC50 at 0.5 h [3]: > 100 µg/mL

MIC (Staphylococcus aureus [11]): 8 µg/mL (≈ 5.6 µM) | MIC (Escherichia coli [12]): 16 µg/mL (≈ 11.2 µM)
Structure (SMILES): CC(C)C[C@@H]1NC(=O)[C@H](CCCN)NC(=O)[C@H](C(C)C)NC(=O)[C@@H]2C[C@@H](N[C@@H](CCCCN)C(=O)O)CN2C(=O)[C@@H](Cc2ccccc2)NC(=O)[C@H](CC(C)C)NC(=O)[C@H](CCCN)NC(=O)[C@H](C(C)C)NC(=O)[C@@H]2C[C@@H](N[C@@H](CCCCN)C(=O)O)CN2C(=O)[C@@H](Cc2ccccc2)NC1=O [listing 2 of 2 here]

MIC (Escherichia coli [1]): 25 µg/mL (≈ 20.8 µM) | MIC (Priestia megaterium): 3.13 µg/mL (≈ 2.6 µM) | MIC (Bacillus subtilis): 6.25 µg/mL (≈ 5.19 µM) | MIC (Pseudomonas aeruginosa [2]): 50 µg/mL (≈ 41.5 µM) | MIC (Staphylococcus aureus [4]): 3.13 µg/mL (≈ 2.6 µM)
Structure (SMILES): CC(C)C[C@@H]1NC(=O)[C@H](CCCN)NC(=O)[C@H](C(C)C)NC(=O)[C@H](CCCCN)NC(=O)[C@@H](Cc2ccccc2)NC(=O)[C@H](CC(C)C)NC(=O)[C@@H](CCCN)NC(=O)[C@H](C(C)C)NC(=O)[C@H](CCCCN)NC(=O)[C@@H](Cc2ccccc2)NC1=O
HC50 at 0.5 h [3]: > 200 µg/mL

MIC (Escherichia coli [1]): 12.5 µg/mL (≈ 11.3 µM) | MIC (Priestia megaterium): 3.13 µg/mL (≈ 2.84 µM) | MIC (Bacillus subtilis): 6.25 µg/mL (≈ 5.66 µM) | MIC (Pseudomonas aeruginosa [2]): 12.5 µg/mL (≈ 11.3 µM) | MIC (Staphylococcus aureus [4]): 3.13 µg/mL (≈ 2.84 µM)
Structure (SMILES): CC(C)C[C@@H]1NC(=O)[C@H](CCCN)NC(=O)[C@H](C(C)C)NC(=O)[C@@H]2CCCN2C(=O)[C@@H](CCCCN)NC(=O)[C@H](CC(C)C)NC(=O)[C@@H](CCCN)NC(=O)[C@H](C(C)C)NC(=O)[C@@H]2CCCN2C(=O)[C@@H](CCCCN)NC1=O
HC50 at 0.5 h [3]: 150 to 200 µg/mL

MIC (Escherichia coli [17]): 8 µg/mL (≈ 7.07 µM) | MIC (Enterococcus faecalis [18]): 16 µg/mL (≈ 14.1 µM) | MIC (Staphylococcus aureus [19]): 4 µg/mL (≈ 3.54 µM) | MIC (Pseudomonas aeruginosa [20]): 16 µg/mL (≈ 14.1 µM)
Structure (SMILES): CC(C)C[C@@H]1NC(=O)[C@H](CCCN)NC(=O)[C@H](C(C)C)NC(=O)[C@@H]2CCCN2C(=O)[C@@H](Cc2c[nH]cn2)NC(=O)[C@H](CC(C)C)NC(=O)[C@@H](CCCN)NC(=O)[C@H](C(C)C)NC(=O)[C@@H]2CCCN2C(=O)[C@@H](Cc2ccccc2)NC1=O
HC50 at 4 h [16]: 90 to 110 µg/mL
